Measurements published in patent US11933781B2, “Fibrosis model and methods of use thereof” (The Regents of the University of Colorado, priority 2020, dated 2024).

Tests used:
Type in all cases: cell-based, human
IPF HBECs [1] = experiment: Induction of the unjammed-to-jammed transition (UJT) in IPF HBECs; conditions: day 14 IPF HBECs
Text: (§1) Epithelial Cell Culture: Primary human bronchial epithelial cells (HBECs) were obtained from two sources (1) provided by Dr. Hong Wei Chu at National Jewish Health, or (2) lung transplant collection at the University of Colorado Hospital (IRB protocol: 11-1664 or 18-0572). Epithelial cells from bronchial brushes or CT-guided dissection were expanded to passage 2 before being cultured at air liquid interface (ALI). Control (N=11), IPF (N=6), and COPD (N=3) were age matched and controls had no history of chronic lung disease (Table 1). Cells were seeded on 24-Transwell plates (Corning, Corning, New York, 3470) coated with type I collagen (Corning, Corning, New York, 354236) and maintained under submerged conditions for five to seven days until the cells reached confluence. Culture media was a 1:1 mixture of DMEM and BEBM (Lonza, Basel, Switzerland, CC170) supplemented with retinoic acid (Sigma-Aldrich, Germany, R-2625) nystatin (Sigma-Aldrich, Germany N1638), and bovine serum albumin (FisherSci, Thermo Fisher Scientific, Waltham, Massachusetts BP9703100). Once confluent, apical media was removed and maintained at ALI. HBECs began recapitulating the in vivo airway, with production of mucus (6-9 days after establishing ALI) and development of a pseudostratified epithelium. Cells were switched to a starvation media (lacking supplemental epidermal growth factor, hydrocortisone, and bovine pituitary extract) 24 hours prior to experimentation.
(§2) For inhibitor, activator, and ligand treatments HBECs were cultured in a starvation media in the absence of EGF, hydrocortisone, and bovine pituitary extract for 24 hours prior to treatment initiation. Cells were then treated for 2-4 hours (with exception of AREG neutralizing antibody which was maintained in the culture media), media was aspirated, the wells were washed with warm PBS and then replaced with fresh starvation media without inhibitor/activator/ligand present, and subsequently imaged. For experiments that required subsequent media changes (96 hour) cells fresh starvation media was changed 48 hours afterwards.
(§3) Live Cell Imaging and Dynamics Measurement: To assess cellular dynamics, time-lapse microscopy and subsequent analysis were completed. Two imaging schemes were utilized: (1) images were taken every 5 minutes for 200 minutes during HBEC differentiation; (2) images were taken every 20 minutes for 48, 96, or 144 hours after HBEC experimental intervention. Phase contrast images were acquired on a Keyence BZ-X810 with a stage incubator (37° C., 5% CO2). Dynamic analysis followed previously published workflows (10-12, 22). Briefly, using phase contrast images instantaneous velocities were mapped by particle image velocimetry utilizing open source PIVLab on MATLAB. Velocity fields were obtained with 2 passes (64×64 and 32×32 pixel size interrogation window with 50% overlap) with a pixel size of 0.75488 μm using a Fast Fourier Transformation method. Trajectories from the PIV were seeded onto a grid and obtained via forward-integration of subsequent fields. These values were then used to determine mean-squared-displacement (MSD) and self-overlap order parameter (Q): MSD(Δt)= ? ri(t+Δt)−ri(t)|2 ? and Q(Δt)=N−1ΣwiNi=1 as previously published. Instantaneous room mean squared velocity (VRMS) of the monolayer was obtained as previously published: VRMS(t)=√1MΣ ? |v(t)2 ? jMj=1
(§4) Cell Shape Analysis: Cell shape measurements were achieved via cell border delineation by F-actin immunofluorescence. Images were segmented utilizing SeedWater Segmenter. Similar to previously published workflows, we segmented images which were subsequently analyzed in ImageJ for the shape index (q=Perimeter√Area) and aspect ratio (major and minor axis) for all cells within a given field of view. For each experimental condition an n≥3 was used with at least 3 independent wells per donor per treatment condition. […]

IPF HBECs [2] = experiment: Gene expression of ERBB receptors, YAP target genes and MUC5B in IPF HBECs; conditions: IPF HBECs after inhibition
Procedure: Quantitative RT-PCR Analysis: Total RNA was extracted using RNeasy® Mini kit (Qiagen, Hilden, Germany) and quantified by NanoDrop™ (ThermoFisher Scientific™, Waltham, Massachusetts).Reverse transcription was completed using the High Capacity cDNA Reverse Transcription Kit (Applied Biosystems™, Thermo Fisher Scientific™, Waltham, Massachusetts). Gene expression was analyzed by using TaqMan® Advanced Master Mix (Thermo Fisher Scientific™, Waltham, Massachusetts and TaqMan® assays. They were subsequently run in triplicate on the ViiA™ 7 Real-Time machine (Thermo Fisher Scientific™, Waltham, Massachusetts). Primer IDs were: β-ACTIN, Hs01060665_g1; MUC5B, Hs00861595_m1; MUC5AC, Hs01365616_m1; EGFR, Hs0176090_m1; ERBB2, Hs01001580_m1; ZEB1, Hs00232783_m1; SNAI1, Hs00195591_m1; VIM, Hs00185584_m1; CTGF, Hs00170014_m1; AREG, Hs00950669_m1; FN1, Hs01549976_m1; PDGFRA, Hs00998018_m1; PDGFA, Hs00234994_m1; PDGFRB, Hs01019589_m1; PDGFB, Hs00966522_m1; TGFBRI, Hs00610320_m1; TGFBI, Hs00998133_m1; COL1A1, Hs00164004_m1; ACTA2, Hs00426835; MMP3, Hs00968305_m1; MMP9, Hs00957562_m1; TIMP1, Hs01092512_g1; and TIMP2, Hs00234278_m1.

IPF HBECs [3] = experiment: YAP immunofluorescence in IPF HBECs; conditions: IPF HBECs 48 hours after treatment
Procedure: (§5) Immunofluorescence staining: Cells were fixed with 4% paraformaldehyde in PBS with calcium and magnesium for 30 minutes at room temperature. Cells were then washed with PBS and subsequently permeabilized (Triton™-X, at 0.1%) and blocked with 5% bovine serum albumin in PBS for 1 hour at room temperature. Cells were then incubated for >16 hours at 4 degrees with primary antibodies. Primary antibodies were aspirated, and cells were washed with PBS+0.1% Tween-20 at room temperature. Cells were then incubated for 1 hour at room temperature with secondary antibodies (1:500) and/or Phalloidin-iFluor™ 488 1:2000. Cells were stained with 4′,6-diamidino-2-phenylindole at 1:20000 (BioLegend®, San Diego, California, 422801). Subsequently, transwell membranes, or hydrogels, were removed from the well and mounted on glass slides with Fluoromount-G® (SouthernBiotech™, Birmingham, Alabama, 0100-01). Slides were then visualized using an Olympus BX63 microscope (Olympus, Tokyo, Japan).
(§6) Immunofluorescence and cell number quantification for HBEC experiments: For total fluorescence quantification (i.e., ERBB2), all images were processed in the same manner with the same microscopy settings. To determine mean fluorescence the channel of interest was separated in ImageJ, and the mean gray value was measured for the field of view and normalized by the total number of cells. Cell counting was achieved by taking 40×images and manually counting all nuclei in a field of view (approximately 200-300). The number of cells also expressing the marker of interested were then counted and normalized by the total number of cells per field. For each experiment a biological n≥3 was used with at least 5 fields of view per well and at least 2 wells being counted in total per donor.

COPD HBECs = experiment: Induction of jamming in COPD HBECs
Text: as §1
as §2, with “afterwards. […]” for “afterwards.”

control HBECs [4] = experiment: Induced unjamming of control HBECs at air-liquid interface (live cell imaging, cell shape); conditions: for ability to induce an unjammed state in control epithelia: control HBECs at ALI day 14; for induction of unjammed state in mature monolayer: control HBECs treated at ALI day 28; for time at which migratory capacity of control epithelia begins to diminish: treatment at day 14 of ALI
Text: as §1, §2, §3, §4

control HBECs [5] = experiment: Immunofluorescence of Ki67 and YAP in control HBECs; conditions: for cell type showing YAP nuclear localization: control HBECs after treatment; for YAP nuclear localization / proliferation (Ki67+): control HBECs, 48 hours after treatment
Procedure: as §5, §6

control HBECs [6] = experiment: Barrier function (TEER) of control HBECs
Procedure: Barrier function measurements: The transepithelial electrical resistance (TEER) was assessed utilizing the Millicell® ERS-2 Voltohmeter (MilliporeSigma™, Burlington, Massachusetts, MERS00002). Briefly, cells were incubated with PBS with calcium and magnesium (at 37 degrees for 20 minutes prior to barrier measurement). The probe was inserted, and the resultant ohm reading was recorded. The final value was calculated by:
This value was subtracted by 100 (the resistance of a blank well) and multiplied by 0.33 (the surface area of a single well in a 24 well plate). A minimum of 3 wells were recorded per donor per treatment condition. These values were subsequently averaged per treatment and graphed.

[7] = control HBECs by MUC5B promoter variant status

Molecule	induction of the UJT (jamming) in IPF epithelia (IPF HBECs [1])	transcription of ERBB receptors, YAP target genes and MUC5B (IPF HBECs [2])	YAP nuclear exclusion (IPF HBECs [3])	ability to induce an unjammed state in control epithelia (control HBECs [4])	other results
COc1cc2ncnc(Nc3cccc(Cl)c3)c2cc1OC [AG1478, Tyrphostin AG-1478]	halted migration and induced a cobblestone appearance in the epithelia	reduced the transcription of ERBB receptors, YAP target genes, and MUC5B nearly back to control levels	results in YAP nuclear exclusion	–	induction of jamming in COPD epithelia (COPD HBECs): not responsive to ERBB-YAP inhibition
C#Cc1cccc(Nc2ncnc3cc(OCCOC)c(OCCOC)cc23)c1 [Erlotinib]	induces jamming in IPF epithelia	decreases 738 ERBB-YAP target gene expression	results in YAP nuclear exclusion	–	–
CNc1nc(-c2ccc3c(N)n[nH]c3c2)cc(N2C[C@@H](C(=O)NC3CCCCC3)CC[C@H]2C)n1 [GSK2334470]	induces jamming in IPF epithelia	–	results in YAP nuclear exclusion	–	–
CS(=O)(=O)CCNCc1ccc(-c2ccc3ncnc(Nc4ccc(OCc5cccc(F)c5)c(Cl)c4)c3c2)o1 [Lapatinib]	induces jamming in IPF epithelia	decreases 738 ERBB-YAP target gene expression	results in YAP nuclear exclusion	–	–
NC1(c2ccc(-c3nc4ccn5c(=O)[nH]nc5c4cc3-c3ccccc3)cc2)CCC1 [MK-2206]	did not induce the UJT	–	–	–	–
FC(F)(F)c1ccc(/C=C/c2nc(COc3ccc(CCCCn4ccnn4)cc3)co2)cc1 [Mubritinib]	induces jamming in IPF epithelia	decreases 738 ERBB-YAP target gene expression	results in YAP nuclear exclusion	–	–
NCC(=O)Nc1ccc(-n2nc(C(F)(F)F)cc2-c2ccc3c(ccc4ccccc43)c2)cc1 [OSU03012, OSU-03012]	induces jamming in IPF epithelia	decreases 738 ERBB-YAP target gene expression	results in YAP nuclear exclusion	–	induction of jamming in COPD epithelia (COPD HBECs): not responsive to ERBB-YAP inhibition
CN1CCN(c2nc(C3=C(c4c[nH]c5ccccc45)C(=O)NC3=O)c3ccccc3n2)CC1 [Sotrastaurin]	did not induce the UJT	–	–	–	–
CN1C(=O)c2sccc2N(C)c2nc(Nc3ccc(S(N)(=O)=O)cc3)ncc21 [XMU-MP-1]	–	–	–	had the ability to elicit an unjammed state	induction of unjammed state in mature monolayer (control HBECs [4]): unjammed state was induced regardless of monolayer maturity; time at which migratory capacity of control epithelia begins to diminish (control HBECs [4]): ~36 h; cell type showing YAP nuclear localization (control HBECs [5]): predominantly in multi-ciliated cells (FOXJ1+); YAP nuclear localization (control HBECs [5]): did lead to YAP nuclear localization; proliferation (Ki67+) (control HBECs [5]): neither AREG nor XMU treatment resulted in increased proliferation
AREG: Recombinant amphiregulin, low affinity EGFR ligand (R&D Systems 262-AR)	–	–	–	only AREG treatment had the ability to induce an unjammed state	persistence in the unjammed state, rs35705950 GT vs GG epithelia (control HBECs [4]; [7]): persisted in the unjammed state significantly longer than GG epithelia; root-mean-squared velocity, rs35705950 GT vs GG epithelia (control HBECs [4]; [7]): higher root-mean-squared velocity than their GG counterparts; induction of unjammed state in mature monolayer (control HBECs [4]): unjammed state was induced regardless of monolayer maturity; time at which migratory capacity of control epithelia begins to diminish (control HBECs [4]): ~36 h; barrier function in genotype-dependent unjamming (control HBECs [6]; control HBECs GG or GT): did not alter barrier function; barrier function (TEER) after treatment (control HBECs [6]; control HBECs at ALI day 14): without diminishing barrier function; cell type showing YAP nuclear localization (control HBECs [5]): predominantly in multi-ciliated cells (FOXJ1+); YAP nuclear localization (control HBECs [5]): did lead to YAP nuclear localization; proliferation (Ki67+) (control HBECs [5]): neither AREG nor XMU treatment resulted in increased proliferation
EGF: High-affinity EGFR ligand, EGFR agonist (R&D Systems 263-EG) (NSDSECPLSHDGYCLHDGVCMYIEALDKYACNCVVGYIGERCQYRDLKWWELR; Epidermal growth factor; UniProt P01133 971-1023, looked up)	–	–	–	only AREG treatment had the ability to induce an unjammed state	–
TGFα: High-affinity EGFR ligand, EGFR agonist (R&D Systems 239-A-100)	–	–	–	only AREG treatment had the ability to induce an unjammed state	–
